Measured values reported in patent US12227482B2, “Compounds and compositions for the treatment of cancer” (The Regents of the University of California, priority 2016, dated 2025).

Tests used:
Type in all cases: cell-based
MelJuSo cells = assay: Cell viability (CellTiter-Glo ATP content) in MelJuSo cells; details: Homo sapiens, MEL-JUSO, 72 hours treatment, cell survival by CellTiter-Glo, 2% fetal bovine serum
Protocol: (§1) Logarithmically growing A549, LOX and MelJuSo cells (ATCC) were plated in antibiotic-free RPMI medium (Coming) supplemented with 2% fetal bovine serum (Gemini Bio-products) at a density of 5,000 cells per well in clear-bottom 96-well plates. The next day cells were treated (triplicates) with increasing doses of a compound of the present disclosure (dissolved in DMSO) and DMSO vehicle controls (final DMSO concentration of 0.5%) for 72 hours and subsequently assessed for cell viability by measuring ATP content with CellTiter-Glo Luminescent Cell Viability Assay (Promega). Signal intensity was measured on a Glomax™ 96 Microplate Luminometer (Promega) and percent cell survival was calculated based on the reading of vehicle control cells set as 100%.

A549 cells = assay: Cell viability (CellTiter-Glo ATP content) in A549 cells; details: Homo sapiens, A549, 72 h, 72 hours treatment, cell survival by CellTiter-Glo, 2% fetal bovine serum
Protocol: as §1

LOX cells = assay: Cell viability (CellTiter-Glo ATP content) in LOX cells; details: LOX, 72 h, 72 hours treatment, cell survival by CellTiter-Glo, 2% fetal bovine serum
Protocol: as §1

| SMILES | IC50 (MelJuSo cells) [µM] | IC50 (A549 cells) [µM] | IC50 (LOX cells) [µM] |
| --- | --- | --- | --- |
| CCCCC1C(c2ccc(F)cc2)=NN(c2ccccc2)C1(C)C(=O)NCc1cccc(OC)c1OC (stereo not drawn) [Compound 45, 4-butyl-N-(2,3-dimethoxybenzyl)-3-(4-fluorophenyl)-5-methyl-1-phenyl-4,5-dihydro-1H-pyrazole-5-carboxamide] | > 2 | > 2 | > 2 |
| CCCCC1C(c2ccc(F)cc2)=NN(c2ccccc2)C1(C)C(=O)NCc1ccc(OC)cc1OC (stereo not drawn) [Compound 46, 4-butyl-N-(2,4-dimethoxybenzyl)-3-(4-fluorophenyl)-5-methyl-1-phenyl-4,5-dihydro-1H-pyrazole-5-carboxamide] | > 2 | > 2 | > 2 |
| CCCCC1C(c2ccc(F)cc2)=NN(c2ccccc2)C1(C)C(=O)N(C)Cc1ccc(OC)c(OC)c1 (stereo not drawn) [Compound 47, 4-butyl-N-(3,4-dimethoxybenzyl)-3-(4-fluorophenyl)-N,5-dimethyl-1-phenyl-4,5-dihydro-1H-pyrazole-5-carboxamide] | > 2 | > 2 | > 2 |
| CCCCC1C(c2ccc(F)cc2)=NN(c2ccccc2)C1(C)C(=O)NCc1ccc(N(C)C)cc1 (stereo not drawn) [Compound 48, 4-butyl-N-(4-(dimethylamino)benzyl)-3-(4-fluorophenyl)-5-methyl-1-phenyl-4,5-dihydro-1H-pyrazole-5-carboxamide] | > 2 | > 2 | > 2 |
| CCCCC1C(c2ccc(F)cc2)=NN(c2ccccc2)C1(C)C(=O)NCCCN(C)C (stereo not drawn) [Compound 49, 4-butyl-N-(3-(dimethylamino)propyl)-3-(4-fluorophenyl)-5-methyl-1-phenyl-4,5-dihydro-1H-pyrazole-5-carboxamide] | > 2 | > 2 | > 2 |
| CCCCC1C(c2ccc(F)cc2)=NN(c2ccccc2)C1(C)C(=O)NCC(C)(C)CN(C)C (stereo not drawn) [Compound 50, 4-butyl-N-(3-(dimethylamino)-2,2-dimethylpropyl)-3-(4-fluorophenyl)-5-methyl-1-phenyl-4,5-dihydro-1H-pyrazole-5-carboxamide] | > 2 | > 2 | > 2 |
| CCCCC1C(c2ccc(F)cc2)=NN(c2ccccc2)C1(C)C(=O)NCC1CCCCC1 (stereo not drawn) [Compound 51, 4-butyl-N-(cyclohexylmethyl)-3-(4-fluorophenyl)-5-methyl-1-phenyl-4,5-dihydro-1H-pyrazole-5-carboxamide] | > 2 | > 2 | > 2 |
| CCCCC1C(c2ccc(F)cc2)=NN(c2ccccc2)C1(C)C(=O)N(C)Cc1cc(OC)cc(OC)c1 (stereo not drawn) [Compound 52, 4-butyl-N-(3,5-dimethoxybenzyl)-3-(4-fluorophenyl)-N,5-dimethyl-1-phenyl-4,5-dihydro-1H-pyrazole-5-carboxamide] | > 2 | > 2 | > 2 |
| CCCCC1C(c2ccc(Cl)cc2F)=NN(c2ccccc2)C1(C)C(=O)NCCCC(C)(C)CO (stereo not drawn) [Compound 53, 4-butyl-3-(4-chloro-2-fluorophenyl)-N-(5-hydroxy-4,4-dimethylpentyl)-5-methyl-1-phenyl-4,5-dihydro-1H-pyrazole-5-carboxamide] | > 2 | > 2 | > 2 |
| CCCCC1C(c2ccc(Cl)cc2F)=NN(c2ccccc2)C1(C)C(=O)NCCOC (stereo not drawn) [Compound 54, 4-butyl-3-(4-chloro-2-fluorophenyl)-N-(2-methoxyethyl)-5-methyl-1-phenyl-4,5-dihydro-1H-pyrazole-5-carboxamide] | > 2 | > 2 | > 2 |
| CCCCC1C(c2ccc(F)cc2)=NN(c2cccc(C)c2)C1(C)C(=O)NCCOC (stereo not drawn) [Compound 55, 4-butyl-3-(4-fluorophenyl)-N-(2-methoxyethyl)-5-methyl-1-m-tolyl-4,5-dihydro-1H-pyrazole-5-carboxamide] | < 0.25 | 0.25 to 0.5 | < 0.25 |
